Like-named read-outs stand apart in the source and are kept apart here.
Tests used:
[1] = test system: reconstructed gingival mucous membrane epithelia; experiment: mRNA Expression Array on reconstructed gingival mucous membrane epithelia treated with irritant/sensitizing agents or actives; format: cell-based; conditions: (treated/non-stressed)x100; 20 μl per epithelium 1 h, then 24 h; SLS 5%, LPS 1000 U/ml, Prednisolone 10 mM, Inhipase 3%
From the text: 1 to 2.10^6 epithelial cells of gingival mucous membrane called <<reference gingival mucous membrane epithelia cells>> (gingival biopsy, Passage 3 (3rd amplification by trypsination)), extracted as described in Example 1, are sown in Boyden chamber-type inserts (membrane of porosity 0.4 μm and diameter 10 mm—fibroblast nutrient under layer), in a DMEM-Glutamax/Ham F-12 (ratio 3/1 v/v) culture medium supplemented with 10% of Hyclone II calf serum, with ascorbic acid-2-phosphate at a final concentration of 1 millimolar, with EGF at a final concentration of 10 ng/mL, with hydrocortisone at a final concentration of 0.4 micrograms/milliliter, with umulin at a final concentration of 0.12 IU/milliliter, with isuprel at a final concentration of 0.4 micrograms/milliliter, with triiodothyronine at a final concentration of 2.10^−9 molar, with adenine at a final concentration of 24.3 micrograms/milliliter, with penicillin at a final concentration of 100 IU/milliliter, with amphotericin B at a final concentration of 1 microgram/milliliter, and with gentamycin at a final concentration of 20 micrograms/milliliter, and for a period of culture by immersion of 3 to 8 days.
The cultures of epithelial cells are then maintained in immersion for 12 to 18 days in the same culture medium as that used for the immersion culture, except the percentage of calf serum which is lowered by 10% to 1%.
At the end of experimentation, the medium is eliminated and replaced with PBS pH 7.4, and the reconstructed epithelia Which are present in the inserts are stressed by various potentially irritant or sensitizing agents, at the rate of 20 μl per epithelium and for one hour: 5% sodium lauryl sulfate (SLS), Lipopolysaccharide (LPS) 1000 U/ml, an anti-inflammatory agent Prednisolone 10 mM (Sigma) and an active Inhipase® 3% (extract of the root of pueraria lobata, Coletica) also at the rate of 20 μl per epithelium, for 1 hour. The agents applied on the reconstructed epithelia are then eliminated and then the reconstructed epithelia are incubated for 24 additional hours in immersion medium without calf serum. Certain reconstructed epithelia are analyzed in terms of cell viability by a test with MTT (methylthiazoletetrazolium). Other reconstructed epithelia are scraped off and taken up into Tri Reagent® (T9424 Sigma, St Louis USA) and then extracted with chloroform. After centrifugation at 12,000 g for 15 minutes at 4° C., the RNAs are found in the upper layer.
The determination of the mRNAs of the epithelia is made by Expression Array (R&D System), according to the protocol defined by the supplier.

[2] = test system: pigmented reconstructed skins; experiment: Interleukin secretion (Fluorokine MAP) of pigmented reconstructed skins under repeated solar irradiation with anti-oxidant actives; format: cell-based; conditions: for restoring cell viability and synthesis of pro-inflammatory interleukins after solar irradiation: actives at 3% in a cosmetic formulation; for IL1 beta secretion (Fluorokine MAP) / IL6 secretion (Fluorokine MAP) / IL8 secretion (Fluorokine MAP) / TNF alpha secretion (Fluorokine MAP): solar irradiation 561 KJ/m^2 twice per week for two weeks, 8 μl cosmetic formulation with active at 3%, 10 days
Experimental: The reconstructed dermis comprising cells called <<stressed cells>> or <<reference cells>> are then incubated in a medium without serum (FBM, Promocell) for 24 hours. The cell viability in the matrices is evaluated by a test with MTT (methylthiazoletetrazolium) and is expressed in percentage of the non-irradiated control. The media are collected, centrifuged, and the cytokines content is determined by the Fluorokine MAP kit (R&D Systems). Briefly, 50 μl of standards or of samples are pipetted into identified wells. 50 μl of microparticles immobilizing specific antibodies of different cytokines are added into the wells as a function of a pre-defined plate plan. After one hour of incubation under orbital agitation, and elimination of the non-fixed substances by washing, labeled antibodies which are specific of different cytokines are added into the wells and are incubated for 2 hours under orbital agitation. After washing, the microparticles are suspended in washing buffer, are agitated for 1 minute under orbital agitation. The reading is carried out immediately on a Luminex 100 Analyser (R&D Systems). The contents of the different cytokines which are present in the media analyzed are determined by virtue of calibration ranges made with highly purified recombinant human cytokines. This technique enables an experimentation to analyze the cellular secretion of various cytokines (IL-1β, IL-2, IL-4, IL-6, IL-8, IL-10, TNFα, GM-CSF, G-CSF, VEGF, bFGF, G-CSF, IFNγ).
The cells extracted are obtained from a mammary biopsy non-exposed to the stress studied. 400,000 fibroblasts, amplified until passage 5 (5th amplification by trypsination) as described in Example 1, are sown on dermal substrates based on surfaced sponges of collagen, in a DMEM-Glutamax culture medium supplemented with 10% of hyclone II calf serum, with ascorbic acid-2-phosphate at a final concentration of 1 millimolar, with EGF or Epidermal growth factor at a final concentration of 10 ng/mL, with penicillin at a final concentration of 100 IU/milliliter, with amphotericin B at a final concentration of 1 microgram/milliliter, and with gentamycin at a final concentration of 20 micrograms/milliliter, and for a period of culture of 14 days.
Then, 400,000 keratinocytes and 10,000 melanocytes, amplified until passage 2 (2nd amplification by trypsination) as described in Example 1, are sown on the dermal equivalents in a DMEM-Glutamax/Ham F-12 (ratio 3/1 v/v) culture medium supplemented with 10% of Hyclone II calf serum, with ascorbic acid-2-phosphate at a final concentration of 1 millimolar, with EGF at a final concentration of 10 ng/mL, with hydrocortisone at a final concentration of 0.4 micrograms/milliliter, with umulin at a final concentration of 0.12 IU/milliliter, with isuprel at a final concentration of 0.4 micrograms/milliliter, with triiodothyronine at a final concentration of 2.10^−9 molar, with adenine at a final concentration of 24.3 micrograms/milliliter, with penicillin at a final concentration of 100 IU/milliliter, with amphotericin B at a final concentration of 1 microgram/milliliter, and with gentamycin at a final concentration of 20 micrograms/milliliter, and for a period of immersion culture of 7 days.
The cultures are then placed at the air-liquid interface for 14 days in the same culture medium as that used for the immersion culture, except the calf serum, the hydrocortisone, the isuprel, the triiodothyronine and the umulin.
Twice per week and for two weeks, the immersion medium is eliminated and replaced by PBS at pH 7.4. Certain pigmented reconstructed skins present in the inserts are preserved at ambient temperature; this model comprises cells which are called “reference cells”. Other pigmented reconstructed skins present in the inserts are irradiated at 561 KJ/m^2 (corresponding to an average hour of exposure in Central Europe) with the aid of a solar irradiator Suntest CPS+ (ATLAS); this model comprises cells which are called “stressed cells”.

reconstructed skins = test system: reconstructed skins
Experimental: Reconstructed skins are made according to the protocol described in Example 6.
The UVB irradiation at the rate of 50 mJ/cm^2 is made for half the samples comprising <> cells. The other samples are preserved at ambient temperature under the same conditions, and constitute samples comprising <> cells.
At the end of experimentation, the content of tropoelastin mRNA, collagen of type I and collagen of type III is evaluated by a real time RT-PCR technique. For this, couples of primers enabling the amplification of specific fragments of tropoelastin, of collagen of type I and of collagen of type III (sense 18/antisense 19 and sense 18/antisense 20, respectively) and actin sequence primers (541 pairs of bases) were used. After extraction in TriReagent® (Sigma) and purification of the RNAs according to the protocol of the supplier, the reactions of RT-PCR (Reverse Polymerase Transcription Chain reactions) are carried out by quantitative real time RT-PCR with the aid of the <<Opticon>> system (MJ Research).
The reaction mixture (50 μl) introduced into the well is the following, for each sample:
10 μl of RNA at the concentration of 5 ng/μl.
The primers of the various labelers used
Reaction mixture (Qiagen-25 μl 2×QuantiTect SYBR Green RT-PCR master mix containing 5 mM MgCl2+0.5 μl QuantiTect RT mix), the labeler SYBR Green I inserting itself in the DNA double strand during elongation step).
Reverse transcription: 30 min at 50° C.,
PCR reactions: [15 sec at 94° C., 30 sec at 60° C. and 30 sec at 72° C.], 50 cycles.
The absence of contamination and the purity of the products amplified are verified by the melting curves of the amplified PCR products. The products having a double peak or an abnormal melting temperature are eliminated.
The incorporation of fluorescence in the amplified DNA was evaluated continuously during the PCR cycles. This system enables obtaining fluorescence measurement curves as a function of the number of PCR cycles and thus to evaluate a relative quantity of amplified DNA.
In order to take account of the:cell population present in the reconstructed skins, all the results were attributed to the signal <>, used as housekeeping gene.
According to the experimentation, the measurement threshold of the C(T) (=cycle threshold) is fixed for T between 0.05 and 0.01 and then an arbitrary unit of measurement is calculated for each gene according to the formula:
Sgene <>=10^7X(½)^C(T)gene <<X>>
C(T)gene <> signifying the measurement threshold of the C(T) (Cycle Threshold) of the gene <>.
The values of the genes of interest are attributed to the signal <> by calculation of the ratio:
These ratios are compared between the treated and non-treated samples.

[3] = UVB 50 mJ/cm^2, then 24 h with active at 1%
[4] = UVB 50 mJ/cm^2, then 24 h with active at 3%

Row | Compound | IL1α mRNA, factor of variation with respect to the non-stressed control [1] | IL1β mRNA, factor of variation with respect to the non-stressed control [1] | IL6 mRNA, factor of variation with respect to the non-stressed control [1] | IL7 mRNA, factor of variation with respect to the non-stressed control [1] | IL8 mRNA, factor of variation with respect to the non-stressed control [1] | IL10 mRNA, factor of variation with respect to the non-stressed control [1] | IL11 mRNA, factor of variation with respect to the non-stressed control [1] | IL12 mRNA, factor of variation with respect to the non-stressed control [1] | IL15 mRNA, factor of variation with respect to the non-stressed control [1] | IL-1R AcP mRNA, factor of variation with respect to the non-stressed control [1] | IL-1RI mRNA, factor of variation with respect to the non-stressed control [1] | IL-1RII mRNA, factor of variation with respect to the non-stressed control [1] | IL-1ra mRNA, factor of variation with respect to the non-stressed control [1] | PLA2 mRNA, factor of variation with respect to the non-stressed control [1] | TNFα mRNA, factor of variation with respect to the non-stressed control [1] | restoring cell viability and synthesis of pro-inflammatory interleukins after solar irradiation [2] | IL1 beta secretion (Fluorokine MAP) [2] | IL6 secretion (Fluorokine MAP) [2] | IL8 secretion (Fluorokine MAP) [2] | TNF alpha secretion (Fluorokine MAP) [2] | other results
1 | C[C@]12C=CC(=O)C=C1CC[C@@H]1[C@@H]2[C@@H](O)C[C@@]2(C)[C@H]1CC[C@]2(O)C(=O)CO [Prednisolone] | 62 | 75 | 81 | 102 | 105 | 152 | 101 | 67 | 99 | 95 | 83 | 88 | 112 | 93 | 67 | – | – | – | – | – | –
2 | CCCCCCCCCCCCOS(=O)(=O)[O-].[Na+] [SLS, sodium lauryl sulfate] | 241 | 114 | 163 | 127 | 183 | 75 | 112 | 132 | 147 | 102 | 154 | 137 | 82 | 102 | 213 | – | – | – | – | – | –
3 | Hesperitine Laurate [Flavagrum ®] | – | – | – | – | – | – | – | – | – | – | – | – | – | – | – | have shown an effectiveness capable of tending to restoring the reference level for these two parameters | 125 pg/mL | 452 pg/mL | 312 pg/mL | 105 pg/mL | –
4 | Quercitine Caprylate [Flavenger ®] | – | – | – | – | – | – | – | – | – | – | – | – | – | – | – | have shown an effectiveness capable of tending to restoring the reference level for these two parameters | 97 pg/mL | 426 pg/mL | 294 pg/mL | 89 pg/mL | limiting the UVB-induced increase in RNAs of collagen type I, type III and elastin (reconstructed skins; 1 and 3%): enables limiting the effects of the UVB stress induced by restoring, in a dose-dependent manner, the synthesis of these molecules; Collagen I mRNA, ratio R = Sgene/Sactin (reconstructed skins; [3]): 0.94; Collagen III mRNA, ratio R = Sgene/Sactin (reconstructed skins; [3]): 1.37; Elastin mRNA, ratio R = Sgene/Sactin (reconstructed skins; [3]): 4.87; Collagen I mRNA, ratio R = Sgene/Sactin (reconstructed skins; [4]): 0.92; Collagen III mRNA, ratio R = Sgene/Sactin (reconstructed skins; [4]): 1.26; Elastin mRNA, ratio R = Sgene/Sactin (reconstructed skins; [4]): 4.61
